In series [1] the target is T1, cloned human S1P5 (Homo sapiens, UniProt Q9H228).
T1 construct: expressed in transfected cells
The series can be described thus: In-vitro affinity, EC50 for cloned human S1P5. In kind it is biochemical.

In series [2] the target is T2, cloned human S1P1 (Homo sapiens, UniProt P21453).
T2 construct: expressed in transfected cells
Nature of the series: In-vitro affinity, EC50 for cloned human S1P1. Format: biochemical.

The target in series [3] is S1P1 (Homo sapiens, UniProt P21453). Nature of the series: EC50 for S1P1. In kind it is biochemical. To be noted: as quoted in Example 3.1.
In series [4] the test system is PLP139-151 induced experimental autoimmune encephalomyelitis (EAE) in SJL/J mice. The series can be described thus: Relapse and progression in PLP139-151 induced EAE. In kind it is in vivo. The conditions noted are these: 3 mg/kg p.o. daily, started three days after first clinical symptoms; FIG. 2. On the procedure:
Female SJL/J mice were immunized with 50 μg PLP139-151 in CFA, followed by one injection of 200 ng Pertussis toxin, i.p.. Three days after the first clinical symptoms, the mice were randomized to either vehicle or BAF312 and treated daily with 3 mg/kg BAF312 p.o..

Series [5] can be described thus: Clinical study in SPMS: cardiac monitoring at treatment initiation. In kind it is in vivo, patients with Secondary Progressive Multiple Sclerosis. The source says: This is a randomized, multicenter, double-blind, placebo-controlled parallel-group study in approximately 1530 patients with SPMS. Patients are randomized (2:1) to receive either BAF312 or placebo.
The Double-blind treatment epoch starts at randomization. Patients are randomly assigned to either siponimod or placebo. Randomized patients begin with a six-day dose titration Patients are monitored during the dose titration period. During the dose titration, all patients are expected to complete a study visit on the first day of dosing and on day 7. Patients have a study visit on Day 28 and then continue on a visit schedule every 3 months. The treatment duration for individual patients is variable (likely ranging from approximately 23 to 42 months) based on when the study-stop criteria are met.
All patients start the treatment with a 5-day dose titration pack (0.25 mg, 0.25 mg, 0.5 mg, 0.75 mg, 1.25 mg) continuing to a 2 mg siponimod/placebo dose.
Sitting heart rate and blood pressure should be measured in triplicate before the first dose of BAF312, then hourly for 6 hours thereafter (by the Independent First Dose Administrator). When obtaining the pre-dose heart rate before the first dose, the patient should be allowed to sit and rest for 5 minutes before taking the sitting heart rate. Triplicate repeat sitting heart rate and blood pressure will then be made at 1-2 minute intervals. The sitting heart rate and blood pressure measurements should be taken as a baseline reading for both heart rate and blood pressure (before the first dose of BAF312). For comparison to the post-dose heart rate values, the lowest pre-dose value of heart rate should be used. Patients should receive the first dose of BAF312 before 12:00 PM (noon) in the outpatient setting. • 1. In house (clinical/office/hospital) cardiac monitoring, of at least 6 hours, on Day 1 (treatment initiation): • Heart rate and blood pressure will be monitored in triplicate every hour for 6 hours. • 12-lead ECG will be done before dosing, then at 3 hours post-dose and 6 hours post dose • Patients will only be discharged if they meet the following discharge criteria: • Heart rate must be at least 50 bpm or maximally 10 bpm lower than the baseline value • Heart rate must not be the lowest value measured during the observation period • Patients must have no symptoms related to decreased heart rate • ECG at 6 hours should not show any new significant treatment-emergent ECG abnormalities, other than sinus bradycardia, not observed at the patient's pre-dose ECG. • 2. If the discharge criteria are not met at the 6-hour time point, monitoring beyond 6 hours will be performed until the discharge criteria are met. • 3. Patients experiencing a clinically relevant treatment-related symptomatic event (e.g. chest pain, dizziness, palpitations, syncope, nausea and vomiting, etc) associated with reduction of the heart rate together with ECG changes at any time during the 6 hour monitoring period should be discontinued from treatment. • 4. Patients experiencing a symptomatic event, (e.g. chest pain, dizziness, palpitations, syncope, nausea and vomiting) not associated with reduction of the heart rate and without ECG changes, which occur at any time during the 6-hour monitoring period may be discharged, provided they meet the discharge criteria, but must return on Day 2 for the second dose and will be re-monitored as on Day 1. • 5. Mobile heart rate monitoring with telemetry, or a device with similar (or better) registration capability, will be used for continuous registration of heart rate and cardiac events, minimally 6 h post-dose, for Expanded Cardiac Monitoring patients during their outpatient phase of the BAF312 titration period. If MCT is not possible, Patient will be required to wear a Holter on Screening, Day 1 and Day 4 for 24 hours and for 6 hours on Day 7. The patients who will wear a Holter will need make the study visits to have the Holter machine attached. • 6. On Day 4: • a. […]

For series [6] the following is noted: administration of 10 mg of siponimod; cited from earlier work.
Series [7] addresses S1P5 (Homo sapiens, UniProt Q9H228). Nature of the series: EC50 for S1P5. The conditions noted are these: as quoted in Example 3.1. Format: biochemical.
Setting [8] is: blinded data (siponimod or placebo).
Setting [9] is: blinded data (siponimod or placebo), AE data for 775 patients.

This is an account of results in patent publication US20250041266A1, “S1P MODULATOR IMMEDIATE RELEASE DOSAGE REGIMEN” (Novartis AG, priority 2014, published 2025).

pEC50: −log10 of the molar value.

T2 sequence (P21453 whole entry): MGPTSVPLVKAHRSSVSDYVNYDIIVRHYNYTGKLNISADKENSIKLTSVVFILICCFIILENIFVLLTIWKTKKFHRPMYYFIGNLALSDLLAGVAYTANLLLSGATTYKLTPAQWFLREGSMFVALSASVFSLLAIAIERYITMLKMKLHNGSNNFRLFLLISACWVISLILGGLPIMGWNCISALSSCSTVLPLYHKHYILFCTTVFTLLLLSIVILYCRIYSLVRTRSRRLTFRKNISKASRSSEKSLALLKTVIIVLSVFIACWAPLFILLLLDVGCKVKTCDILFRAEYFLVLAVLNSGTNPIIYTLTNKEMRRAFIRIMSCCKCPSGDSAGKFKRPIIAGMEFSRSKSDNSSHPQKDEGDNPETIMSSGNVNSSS
T1 sequence (Q9H228 whole entry): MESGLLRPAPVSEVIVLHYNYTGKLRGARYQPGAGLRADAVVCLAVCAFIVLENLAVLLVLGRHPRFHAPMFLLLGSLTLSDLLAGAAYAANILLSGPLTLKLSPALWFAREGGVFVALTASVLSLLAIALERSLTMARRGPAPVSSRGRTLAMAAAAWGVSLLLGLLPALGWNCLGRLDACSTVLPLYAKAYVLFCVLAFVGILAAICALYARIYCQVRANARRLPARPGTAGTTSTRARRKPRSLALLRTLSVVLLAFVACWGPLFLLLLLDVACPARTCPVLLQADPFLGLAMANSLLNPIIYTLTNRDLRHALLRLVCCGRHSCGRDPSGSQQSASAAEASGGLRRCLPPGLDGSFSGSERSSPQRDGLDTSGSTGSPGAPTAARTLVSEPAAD
Sequence of S1P1 (P21453 whole entry, species assumed): as the sequence (P21453 whole entry) above
Sequence of S1P5 (Q9H228 whole entry, species assumed): as the sequence (Q9H228 whole entry) above

What is called pEC50 is −log10 of the EC50, conventionally taken in molar units. Read a low pEC50 as a high EC50. Regarding `CCc1cc(/C(C)=N/OCc2ccc(C3CCCCC3)c(I)c2)ccc1CN1CC(C(=O)O)C1` [compound A, (E)-1-(4-(1-(((4-cyclohexyl-3-iodobenzyl)oxy)imino)ethyl)-2-ethylbenzyl)azetidine-3-carboxylic acid], the pEC50 is 8.87 in series [1] and 8.66 in series [2].

The molecule `CCc1cc(/C(C)=N/OCc2ccc(C3CCCCC3)c(C(F)(F)F)c2)ccc1CN1CC(C(=O)O)C1` [siponimod, 1-{4-[1-((E)-4-cyclohexyl-3-trifluoromethyl-benzyloxyimino)-ethyl]-2-ethyl-benzyl}-azetidine-3-carboxylic acid] showed a negative logarithm of the EC50 (pEC50) in series [3] of 9.40. In addition, in series [4], the “occurrence of relapses (relapse onset)” value is listed as “strongly inhibited”; the “occurrence of subsequent progression (EAE score and body weight)” value was “strongly inhibited”. Moreover, the “12-lead ECG: cases of 2nd degree AV block” value in series [5] (blinded data (siponimod or placebo 2:1), 5-day titration then 2 mg, post-dose ECG, 691 patients) is reported as “no cases”. Moreover, in series [5] (setting [8]), the “cases of 2.1 or Mobitz II AV blocks or high degree AV blocks” value was “No cases”, the “cases of symptomatic 2nd degree AV blocks” value was “No cases” and the symptomatic bradyarrhythmia events result is recorded as “No symptomatic bradyarrhythmia events”. For the same molecule, the “Holter: patients with AV block 2nd degree Mobitz I night-time episode <3 sec” value in series [5] (blinded data (siponimod or placebo), Day 1, expanded monitoring group, 651 patients) was 1 patient. In addition, the “MCT: patients with AV block 2nd degree Mobitz I” value in series [5] (blinded data (siponimod or placebo), on Days 3 and 4, MCT or Holter post-dose, 651 patients) was 2 patients. In addition, in series [5] (setting [9]), the “AE AV block 2nd degree” value was 2 (0.3%) patients (%), the AE bradycardia is recorded as 17 (2.2%) patients (%), the AE sinus bradycardia is listed as 8 (1.0%) patients (%) and the “Cardiac disorders AEs reported” value is on record as 54 (7%) patients (%). The “SAE of asymptomatic 2nd degree AV block Mobitz I” value in series [5] (blinded data, patient with pre-existing AV block 1st degree receiving carbamazepine, SAE data for 862 patients) is recorded as 1 SAE. In addition, the “decrease in heart rate” value in series [6] was “approximately 10 beats/min”. This molecule also had a pEC50 in series [1] of 9.10. Moreover, in series [7], the pEC50 is 9.00. The negative-log EC50 (pEC50) in series [2] is 9.05.
